Measurements published in patent US8361507B2, “Eprosartan mesylate crystalline particles and a process for preparing pure eprosartan” (Hetero Drugs Limited, priority 2007, dated 2013).
Counter-ions that a name gives are not always drawn.

Key:
[1] = Particle size distribution by laser diffraction (Sympatec Helos); format: physicochemical; details: crystalline particles
Excerpt: As used herein “Particle Size Distribution (P.S.D.)” means the cumulative volume size distribution of equivalent spherical diameters as determined by laser diffraction at 1 bar dispersive pressure in a Sympatec Helos equipment. “Mean particle size distribution, i.e., d(0.5)” correspondingly, means the median of said particle size distribution.

[2] = Specific surface area by Brunauer-Emmett-Teller (B.E.T.) nitrogen absorption; format: physicochemical; details: B.E.T. method, crystalline particles
Excerpt: Specific surface area is defined in units of square meters per gram (m^2/g). It is usually measured by nitrogen absorption analysis. In this analysis, nitrogen is absorbed on the surface of the substance. The amount of the absorbed nitrogen (as measured during the absorption or the subsequent desorption process) is related to the surface area via a formula known as the B.E.T. formula.

[3] = crystalline particles disclosed in WO 00/53282; cited from earlier work
[4] = cited from earlier work

90 volume-% of the particles (D90) [1] | Mean particle size (D50) [1] | Specific Surface Area [2] | SMILES | d90 value [3] | solubility in methanol ([4]; methanol) | solubility in water ([4]; water)
33.48 μm | 12.13 μm | 1.09 m^2/g | CCCCc1ncc(/C=C(\Cc2cccs2)C(=O)O)n1Cc1ccc(C(=O)O)cc1 [Example 2, eprosartan mesylate] | – | – | –
30.42 μm | 11.23 μm | 1.11 m^2/g | CCCCc1ncc(/C=C(\Cc2cccs2)C(=O)O)n1Cc1ccc(C(=O)O)cc1 [Example 4, eprosartan mesylate] | – | – | –
213.72 μm | 70.56 μm | 0.53 m^2/g | CCCCc1ncc(/C=C(\Cc2cccs2)C(=O)O)n1Cc1ccc(C(=O)O)cc1 [Reference Example 3, eprosartan mesylate] | – | – | –
– | – | below 0.6 m^2/g | CCCCc1ncc(/C=C(\Cc2cccs2)C(=O)O)n1Cc1ccc(C(=O)O)cc1 [eprosartan mesylate, (αE)-α-[[2-n-Butyl-1-[(4-carboxyphenyl)methyl]-1H-imidazol-5-yl]methylene-2-thiophenepropanoic acid monomethanesulfonate] | less than 10 micron | soluble | practically insoluble
